This passage reports peak plasma level results from patent publication US20070166777A1, “Methods for detecting lp-pla2 activity and inhibition of lp-pla2 activity” (priority 2004, published 2007).

Each structure is given as a SMILES string.

The data set in a line: Pharmacokinetics in clinical studies, plasma level. Conditions: human subjects, administered in vivo in clinical studies.

`CCN(CC)CCN(Cc1ccc(-c2ccc(C(F)(F)F)cc2)cc1)C(=O)Cn1c(SCc2ccc(F)cc2)nc(=O)c2c1CCC2` [Formula II, -(N-(2-(Diethylamino)ethyl)-N-(4-(4-trifluoromethylphenyl)benzyl)-aminocarbonylmethyl)-2-(4-fluorobenzyl)thio-5,6-trimethylenepyrimidin-4-one bitartrate] returned a peak plasma level of 90 ng/mL.
